Experimental data reported in patent US11274090B2, “P300/CBP HAT inhibitors” (Constellation Pharmaceuticals, Inc., priority 2018, dated 2022).

Molecular target: p300 HAT domain (residues 1287-1666) (Homo sapiens (Human), UniProt Q09472)
Test: p300 HAT SPA assay (scintillation proximity assay, acetylation of biotinylated H3(1-21) peptide)
Assay type: biochemical
Conditions: average of at least 2 replicate titrations
Description: In a typical experiment the p300 HAT inhibitory activity of the compounds described herein was determined in accordance with the following experimental method.
The expressed protein was purified by Ni2+ affinity, followed by anion exchange chromatography. Appropriate fractions were pooled and buffer exchanged into 20 mM Hepes pH 7.5, 150 mM NaCl, and 1 mM TCEP.
35 μL of the reaction volume was transferred to a 384-well streptavidin FlashPlate (PerkinElmer) using a Bravo liquid handler (Velocity 11) and incubated for 1.5 hr at RT. […] Data were analyzed in Genedata to determine inhibitor IC50 values.

p300 HAT domain (residues 1287-1666), sequence (Q09472 1287-1666): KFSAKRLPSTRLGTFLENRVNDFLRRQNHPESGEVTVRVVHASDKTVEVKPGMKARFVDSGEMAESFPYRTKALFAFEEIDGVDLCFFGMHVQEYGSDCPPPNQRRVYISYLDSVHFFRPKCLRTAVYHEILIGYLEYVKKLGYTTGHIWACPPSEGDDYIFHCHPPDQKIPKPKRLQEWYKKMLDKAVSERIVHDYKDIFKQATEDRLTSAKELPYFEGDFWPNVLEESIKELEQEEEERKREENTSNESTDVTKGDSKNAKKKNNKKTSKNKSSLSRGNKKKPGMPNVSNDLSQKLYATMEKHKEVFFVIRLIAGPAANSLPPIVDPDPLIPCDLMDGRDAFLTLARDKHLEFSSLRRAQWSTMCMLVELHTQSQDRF

| Structure (SMILES) | IC50 [µM] |
| --- | --- |
| CCCCCCc1ccc(C(NCCc2ccc(C#N)cc2)C(=O)Nc2ccc(-c3cnn(C)c3)cn2)cc1 (single isomer, unassigned) [121 racemic] | > 2 |
| C[C@H](CNC(C(=O)Nc1ccc(-c2cnn(C)c(=O)c2)cn1)c1ccccc1)c1ccc(C#N)cc1 (single isomer, unassigned) [139 Isomer 2] | > 2 |
| CC(CNC(C(=O)Nc1ccc(-c2cnn(C)c2)cn1)c1ccccc1)c1ccc(C#N)cc1F (single isomer, unassigned) [90 Isomer 3] | 1.6 |
| Cc1ncc(-c2ccc(NC(=O)[C@@H](NC[C@@H](C)c3ccc(C#N)cc3)c3ccccc3)nc2)cn1 (single isomer, unassigned; isomer 1) [6 Isomer 1] | 1.68 |
| CC(CNC(C(=O)Nc1ccc(-c2cnn(C)c2)cc1)c1ccccc1)c1ccc(C#N)cc1 (single isomer, unassigned) [82 Isomer 2] | > 5 |
| CNC(=O)Cn1cc(-c2ccc(NC(=O)C(NC[C@@H](C)c3ccc(C#N)cc3)c3ccccc3)nc2)cn1 (single isomer, unassigned) [146 Isomer 2] | 0.00776 |
| Cc1cn(-c2ccc(NC(=O)C(NCCc3ccc(C#N)cc3)c3ccccc3)nc2)nn1 (single isomer, unassigned) [78 Isomer 2] | > 2 |
| Cn1cc(-c2ccc(NC(=O)C(NCCc3ccc(Cl)cc3C#N)c3ccccc3)nc2)cn1 (single isomer, unassigned) [94 Isomer 1] | 0.0851 |
| Cc1noc(C)c1-c1ccc(NC(=O)C(NC[C@@H](C)c2ccc(C#N)cc2)c2ccccc2)nc1 (single isomer, unassigned) [131 Isomer 2] | 0.038 |
| CC(CNC(C(=O)Nc1ccc(-c2cnn(C)n2)cn1)c1ccccc1)c1ccc(C#N)cc1 (single isomer, unassigned) [98 Isomer 3] | > 2 |
| CC(CNC(C(=O)Nc1ccc(-c2cnn(C(C)(C)C#N)c2)cn1)c1ccccc1)c1ccc(C#N)cc1 (single isomer, unassigned) [47 Isomer 4] | 0.425 |
| Cc1cc(C#N)ccc1CCNC(C(=O)Nc1ccc(-c2cnn(C)c2)cn1)c1ccccc1 (single isomer, unassigned) [41 Isomer 1] | 0.0103 |
| CC(CNC(C(=O)Nc1ccc(-c2cn[nH]c2)cn1)c1ccccc1)c1ccc(C#N)cc1 (single isomer, unassigned) [104 Isomer 4] | 1.02 |
| Cn1cc(-c2ccc(NC(=O)C(NCCc3ccc(C#N)cc3Cl)c3ccccc3)nc2)cn1 (single isomer, unassigned) [51 Isomer 2] | 0.237 |
| CC(CNC(C(=O)Nc1ccc(N2CCN(C)C(=O)C2)cn1)c1cnn(C)c1)c1ccc(C#N)cc1 (single isomer, unassigned) [136 Isomer 2] | > 2 |
| N#Cc1ccc(CCNC(C(=O)Nc2ccc(N3CC4(COC4)C3)cn2)c2ccccc2)cc1 (single isomer, unassigned) [80 Isomer 1] | 0.201 |
| CC(CNC(C(=O)Nc1ccc(-c2cnn(C(C)(C)CO)c2)cn1)c1ccccc1)c1ccc(C#N)cc1 (single isomer, unassigned) [8 Isomer 3] | 1.23 |
| C[C@H](CNC(C(=O)Nc1ccc(-c2cnn(CC(N)=O)c2)cn1)c1ccccc1)c1ccc(C#N)cc1 (single isomer, unassigned) [147 Isomer 1] | 1.88 |
| CC(CNC(C(=O)Nc1ccc(-c2cnn(C(C)(C)C#N)c2)cn1)c1ccccc1)c1ccc(C#N)cc1 (single isomer, unassigned) [47 Isomer 1] | 0.448 |
| CN1CCN(c2ccc(NC(=O)[C@H](NCCc3ccc(C#N)cc3)c3ccccc3)cc2)CC1 (single isomer, unassigned; isomer 2) [18 Isomer 2] | > 5 |
| CNC(=O)Cn1cc(-c2ccc(NC(=O)C(NC[C@@H](C)c3ccc(C#N)cc3)c3ccccc3)nc2)cn1 (single isomer, unassigned) [146 Isomer 1] | 0.993 |
| N#Cc1ccc(CCNC(C(=O)Nc2ccc(C3CC3)cn2)c2ccccc2)cc1 (single isomer, unassigned) [42 Isomer 2] | 3 |
| CC(CNC(C(=O)Nc1ccc(-c2cnn(C)c2)cn1)c1cnn(C)c1)c1ccc(C#N)cc1 (single isomer, unassigned) [127 Isomer 2] | > 2 |
| C[C@H](CNC(C(=O)Nc1ccc(-c2cnn(CC(N)=O)c2)cn1)c1ccccc1)c1ccc(C#N)cc1 (single isomer, unassigned) [147 Isomer 2] | 0.00616 |
| CC(CNC(C(=O)Nc1ccc(-c2cn(C)nn2)cn1)c1ccccc1)c1ccc(C#N)cc1 (single isomer, unassigned) [100 Isomer 4] | > 2 |
| CO[C@@H]1CCN(c2ccc(NC(=O)C(NCC(C)c3ccc(C#N)cc3)c3ccccc3)nc2)C1 (single isomer, unassigned) [92 Isomer 3] | 0.599 |
| NS(=O)(=O)c1ccc(CCN[C@H](C(=O)N2CCc3ccccc32)c2ccccc2)cc1 (single isomer, unassigned) [153 Isomer 1] | > 60 |

| Structure (SMILES) | IC50 [µM] |
| --- | --- |
| CC(CNC(C(=O)Nc1ccc(-c2cnn(C)c2)cc1)c1ccccc1)c1ccc(C#N)cc1 (single isomer, unassigned) [82 Isomer 3] | 0.604 |
| Cc1ccc(-c2ccc(NC(=O)C(NCC(C)c3ccc(C#N)cc3)c3ccccc3)nc2)nn1 (single isomer, unassigned) [15 Isomer 1] | > 2 |
| Cn1cc(-c2ccc(NC(=O)C(NCCc3ccc(C#N)cc3)c3ccc(Cl)cc3)nc2)cn1 (single isomer, unassigned) [67 Isomer 2] | 0.216 |
| N#Cc1ccc(CCNC(C(=O)Nc2ccc(C3CCC3)cn2)c2ccccc2)cc1 (single isomer, unassigned) [46 Isomer 1] | > 5 |
| Cn1cc(-c2ccc(NC(=O)C(NCC(c3ccc(C#N)cc3)C(F)(F)F)c3ccccc3)nc2)cn1 (single isomer, unassigned) [149 Isomer 4] | > 2 |
| Cn1cc(-c2ccc(NC(=O)C(NCCc3ccc(C#N)cc3)c3ccc(Cl)cc3)nc2)cn1 (single isomer, unassigned) [67 Isomer 1] | > 2 |
| Cn1cc(-c2ccc(NC(=O)C(NCCc3ccc(C#N)cc3)c3cccc(C(F)(F)F)c3)nc2)cn1 (single isomer, unassigned) [117 Isomer 2] | > 2 |
| Cc1cnc(-c2ccc(NC(=O)[C@@H](NCCc3ccc(Cl)cc3)c3ccccc3)cc2)[nH]1 (single isomer, unassigned) [9 Isomer 2] | 0.133 |
| CC(CNC(C(=O)Nc1ccc(-c2cnn(C(F)F)c2)cn1)c1cnn(C)c1)c1ccc(C#N)cc1 (single isomer, unassigned) [128 Isomer 3] | > 2 |
| CC1C(=O)N(C)CCN1c1ccc(NC(=O)C(NC[C@@H](C)c2ccc(C#N)cc2)c2ccccc2)nc1 (single isomer, unassigned) [126 Isomer 1] | 0.0211 |
| Cc1nnc2n1CCN(c1ccc(NC(=O)C(NCCc3ccc(C#N)cc3)c3ccccc3)nc1)C2 (single isomer, unassigned) [60 Isomer 1] | 0.0325 |
| Cn1cc(-c2ccc(NC(=O)C(NCC3(c4ccc(Cl)cc4)CC3)c3ccccc3)nc2)cn1 (single isomer, unassigned) [97 Isomer 1] | 0.191 |
| CO[C@H]1CCN(c2ccc(NC(=O)C(NCC(C)c3ccc(C#N)cc3)c3ccccc3)nc2)C1 (single isomer, unassigned) [93 Isomer 4] | > 2 |
| Cn1cc(-c2ccc(NC(=O)C(NCCc3ccc(C#N)c(F)c3)c3ccccc3)nc2)cn1 (single isomer, unassigned) [85 Isomer 1] | 0.0319 |
| CC(=O)N1CCN(c2ccc(NC(=O)C(NC[C@@H](C)c3ccc(C#N)cc3)c3cccc(F)c3)nc2)CC1 (single isomer, unassigned) [135 Isomer 1] | 0.855 |
| Cn1cc(-c2ccc(NC(=O)C(NCCc3ccc(C#N)cc3)c3ccc(C(F)(F)F)cc3)nc2)cn1 (single isomer, unassigned) [120 Isomer 2] | > 2 |
| CC(CNC(C(=O)Nc1ccc(-n2cnc(C(C)(C)C)c2)cn1)c1ccccc1)c1ccc(C#N)cc1 (single isomer, unassigned) [59 Isomer 1] | 1.5 |
| CC(CNC(C(=O)Nc1ccc(-c2cnn(C(C)(C)C)c2)cn1)c1ccccc1)c1ccc(C#N)cc1 (single isomer, unassigned) [54 Isomer 3] | > 2 |
| C[C@H](CNC(C(=O)Nc1ccc(-c2cnn(CC(=O)N(C)C)c2)cn1)c1cccc(F)c1)c1ccc(C#N)cc1 (single isomer, unassigned) [138 Isomer 1] | 0.435 |
| CC(CNC(C(=O)Nc1ccc(-c2cnn(CC(F)(F)F)c2)cn1)c1ccccc1)c1ccc(C#N)cc1 (single isomer, unassigned) [83 Isomer 2] | > 2 |
| N#Cc1ccc(CCNC(C(=O)Nc2ccc(N3CCCC3)nc2)c2ccccc2)cc1 (single isomer, unassigned) [35 Isomer 2] | > 5 |
| Cn1cc(-c2ccc(NC(=O)[C@@H](NCCc3ccc(C#N)cc3)c3ccccc3)cc2)cn1 (single isomer, unassigned) [1 Isomer 1] | 4.99 |
| Cc1cn(-c2ccc(NC(=O)[C@@H](NCCc3ccc(Cl)cc3)c3ccccc3)cc2)cn1 (single isomer, unassigned) [16 Isomer 2] | > 5 |
| Cc1ccc(C(C)CNC(C(=O)Nc2ccc(-c3cnn(C)c3)cn2)c2ccccc2)cn1 (single isomer, unassigned) [143 Isomer 3] | > 2 |
| CC(CNC(C(=O)Nc1ccc(-c2cnn(C)n2)cn1)c1ccccc1)c1ccc(C#N)cc1 (single isomer, unassigned) [98 Isomer 4] | 1.46 |
| Cn1cc(-c2ccc(NC(=O)C(NCCc3ccc(Cl)cc3)c3ccccc3)nc2)cn1 (single isomer, unassigned) [55 Isomer 2] | > 5 |
| Cc1nn(C)c(C)c1-c1ccc(NC(=O)C(NC[C@@H](C)c2ccc(C#N)cc2)c2ccccc2)nc1 (single isomer, unassigned) [130 Isomer 1] | < 2 |
